Active and inactive are the calls of the source. Rule as the data show it, for most assays here: actives have a measured EC50 and inactives only a lower limit.
test system: not listed separately; test: alpha-synuclein stem-loop luciferase translation blockers – H4 neuroglioma cells, luminescence, confirmation (AID 1988); type: functional, cell-based; settings: not given

| SMILES | EC50 |
| --- | --- |
| Oc1[nH]c2ccc(Br)cc2c1N=NC(S)=Nc1ccc(F)cc1 | 9.77 µM (active) |
| COC(=O)Nc1nc2cc(C(=O)c3ccc(F)cc3)ccc2[nH]1 [FLUBENDAZOLE] | < 0.1 µM (active) |

test system: Streptococcus; test: GAS UMAA2166 growth inhibition – luminescence, BacTiterGlo, counter-screen for streptokinase expression inhibitor project, dose response (AID 1915); type: functional, organism-based; settings: not given;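 also: potency for reduction of bacterial viability or growth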

| SMILES | EC50 |
| --- | --- |
| COc1ccc(C(=O)NC2CCCCCC2)cc1S(=O)(=O)N1CCOCC1 | > 150 µM (not active) |
| CC(C)c1nc(N2CCCC2)c(C#N)c2c1CCCC2 | 7.01 µM (active) |
| CN(C)/C=C1\SC(=S)N(c2ccc(Br)cc2)C1=O | 52.3 µM (active) |
| CC(C)S(=O)(=O)c1csc(NC(=O)Nc2ccc(Cl)cc2)c1Cl | > 150 µM (not active) |
| Cc1ccccc1OCC(=O)Nc1ccccc1N1CCC(C)CC1 | 11.1 µM (active) |
| c1ccc(CCNc2nc(-c3ccccn3)cs2)cc1 | 14.2 µM (active) |
| COc1cc(OC)cc(C(=O)Nc2nc3ccccc3[nH]2)c1 | > 150 µM (not active) |
| Oc1[nH]c2ccc(Br)cc2c1N=NC(S)=Nc1ccc(F)cc1 | 1.39 µM (active) |
| O=C(Nc1ccc(OC(F)(F)F)cc1)C1CCCN(S(=O)(=O)c2c[nH]cn2)C1 (centres undefined) | > 150 µM (not active) |
| CCC(C)c1ccc(C(C)N=C(S)NC2CCCCC2)cc1 (centres undefined) | 18.1 µM (active) |

molecular target: Cytochrome P450 2D6 (Homo sapiens, UniProt P10635); test: not given; settings: not given;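 also: CYP2D6 member of a cytochrome P450 panel assay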
Sequence (P10635 whole entry): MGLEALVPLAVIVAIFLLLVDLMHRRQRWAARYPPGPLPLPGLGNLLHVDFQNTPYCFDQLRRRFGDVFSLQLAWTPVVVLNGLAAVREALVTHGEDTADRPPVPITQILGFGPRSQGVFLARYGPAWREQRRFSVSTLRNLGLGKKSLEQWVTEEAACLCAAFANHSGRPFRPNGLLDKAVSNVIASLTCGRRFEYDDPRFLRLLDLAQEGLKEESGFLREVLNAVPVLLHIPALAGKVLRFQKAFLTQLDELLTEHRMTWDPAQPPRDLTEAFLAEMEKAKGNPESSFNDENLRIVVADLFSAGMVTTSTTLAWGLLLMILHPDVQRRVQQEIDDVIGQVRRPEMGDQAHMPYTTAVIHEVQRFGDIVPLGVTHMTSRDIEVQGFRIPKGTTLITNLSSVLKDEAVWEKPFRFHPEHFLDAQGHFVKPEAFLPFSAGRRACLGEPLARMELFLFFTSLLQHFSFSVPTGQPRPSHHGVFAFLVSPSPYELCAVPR

| SMILES | AC50 |
| --- | --- |
| O=C(Nc1ccccc1)N1CCC2(CCNCC2)CC1 | 25.1 µM (inconclusive) |
| CN(C)Cc1ccccc1-c1cc(NCc2ccccc2)ncn1 | 15.8 µM (inconclusive) |
| Cc1cccc(CNc2cc(-c3cccc(C#N)c3)ncn2)c1 | 25.1 µM (inconclusive) |
| FC(F)(F)c1ccccc1-c1cc(NCc2cccs2)ncn1 | 25.1 µM (inconclusive) |
| COc1ccc2[nH]cc(CCNc3ncnc4ccc(-c5cccc(C#N)c5)cc34)c2c1 | 3.16 µM (inconclusive) |
| O=C(Cn1nc(C(F)F)cc1C(F)F)N/N=C/c1ccc2c(c1)OCO2 | 2.82 µM (inconclusive) |

test system: not listed separately; test: luciferase reporter signal suppression in cells – H4 neuroglioma cells, luminescence, dose response (AID 1990); type: functional, cell-based; settings: not given

| SMILES | EC50 |
| --- | --- |
| Oc1[nH]c2ccc(Br)cc2c1N=NC(S)=Nc1ccc(F)cc1 | 15.5 µM (inconclusive) |
| COC(=O)Nc1nc2cc(C(=O)c3ccc(F)cc3)ccc2[nH]1 [FLUBENDAZOLE] | 0.323 µM (active) |

test system: H4; test: Luminescence Cell-Based Dose Response HTS to Identify Activators of 5'UTR Stem-Loop Driven Prion Protein mRNA Translation in H4 Neuroglioblastoma Cells. [Related pubchem assays: 1829 (Project Summary), 1814 (Primary HTS)]; type: functional; settings: Homo sapiens

| SMILES | EC50 |
| --- | --- |
| CC(=O)c1cccc(NC(=O)C(=O)Nc2cccc3ccccc23)c1 | 10.7 µM (active) |
| O=C(Nc1ccc(-c2cn3ccsc3n2)cc1)C1CC1 | 4.21 µM (active) |

test system: not listed separately; test: non-specific 3'UTR reporter inhibition in Clone20-Shn3RL – cell-based, Renilla luciferase, cherry-picked, counter-screen for Shn3 inhibitor project, dose response (AID 624133); type: functional; settings: not given

| SMILES | AC50 |
| --- | --- |
| COc1c(C)cc(C(=O)C2CCCN(C(=O)c3cccc(-n4cccn4)c3)C2)cc1C (centres undefined) | > 70 µM (inactive) |

test system: not listed separately; test: viability of uninfected HEp-2 cells – cell-based, HTS, cytotoxicity control for RSV inhibitor project, dose response (AID 2410); type: functional; settings: human respiratory syncytial virus

| SMILES | CC50 |
| --- | --- |
| CCOC(=O)c1c(NC(=O)/C=C\C(=O)O)sc(C)c1-c1ccccc1 | 19.4 µM (active) |
| COc1ccc(-c2cnc(SCC(=O)Nc3nc(C(C)(C)C)cs3)n2Cc2ccco2)cc1 | 9.59 µM (active) |
| COc1ccc(C2CC(c3ccc(Br)cc3)=NN2C(=O)CSC2=NCCS2)cc1 (centres undefined) | 24.1 µM (active) |
| Cc1ccc2c[nH]nc2c1[N+](=O)[O-] | 42.8 µM (active) |
| O=CNn1cnc2c(oc3nc(-c4ccccc4)cc(-c4ccco4)c32)c1=O | 9.82 µM (active) |
| O=C1NC(=O)/C(=C/c2c[nH]c3ccc(Br)cc23)N1 | 24.8 µM (active) |
| CCOC(=O)c1ccc(COC(=O)c2ccc3c(c2)-c2ccccc2C3=O)cc1 | 20.8 µM (active) |
| O=C1C=C(c2cc(C(F)(F)F)cc(C(F)(F)F)c2)C[C@@H](c2ccc(Cl)cc2)C1 | 17.3 µM (active) |
| CC(=O)Nc1ccc(C2CC(c3ccc(Cl)cc3)=NN2c2ccccc2)cc1 (centres undefined) | 47.5 µM (active) |
| Oc1cccc(Nc2nc(O)c(/C=C3\C=Nc4ccccc43)s2)c1 | 15.3 µM (active) |
| C(=N\Nc1nc(N2CCCCCC2)nc(N2CCCCCC2)n1)/c1ccccc1 | 28.4 µM (active) |
| O=c1c(-c2ccccc2)coc2cc(O)ccc12 [7-HYDROXY ISOFLAVONE] | 46.3 µM (active) |

test system: Streptococcus sp. 'group A'; test: Streptococcus pyogenes SK(-)GAS viability under kanamycin – luminescence, BacTiterGlo, confirmation, counter-screen for streptokinase expression inhibitor project, dose response (AID 1900); type: functional, organism-based; settings: not given

| SMILES | EC50 |
| --- | --- |
| COc1ccc(C(=O)NC2CCCCCC2)cc1S(=O)(=O)N1CCOCC1 | > 150 µM (not active) |
| CC(C)c1nc(N2CCCC2)c(C#N)c2c1CCCC2 | 4.2 µM (active) |
| CN(C)/C=C1\SC(=S)N(c2ccc(Br)cc2)C1=O | 7.37 µM (active) |
| CC(C)S(=O)(=O)c1csc(NC(=O)Nc2ccc(Cl)cc2)c1Cl | 12.1 µM (active) |
| Cc1ccccc1OCC(=O)Nc1ccccc1N1CCC(C)CC1 | 6.64 µM (active) |
| c1ccc(CCNc2nc(-c3ccccn3)cs2)cc1 | 7.29 µM (active) |
| COc1cc(OC)cc(C(=O)Nc2nc3ccccc3[nH]2)c1 | 7.14 µM (active) |
| Oc1[nH]c2ccc(Br)cc2c1N=NC(S)=Nc1ccc(F)cc1 | 0.074 µM (active) |
| O=C(Nc1ccc(OC(F)(F)F)cc1)C1CCCN(S(=O)(=O)c2c[nH]cn2)C1 (centres undefined) | > 150 µM (not active) |
| CCC(C)c1ccc(C(C)N=C(S)NC2CCCCC2)cc1 (centres undefined) | 8.05 µM (active) |

molecular target: T1, Corticotropin-releasing factor receptor 2/Corticotropin-releasing factor-binding protein (Homo sapiens, UniProt P24387+Q13324); test: activators of CRF receptor 2 with binding protein – uHTS hits, confirmation (AID 602473); type: functional; settings: read-out: EC50_Mean
T1 sequence (Q13324 whole entry): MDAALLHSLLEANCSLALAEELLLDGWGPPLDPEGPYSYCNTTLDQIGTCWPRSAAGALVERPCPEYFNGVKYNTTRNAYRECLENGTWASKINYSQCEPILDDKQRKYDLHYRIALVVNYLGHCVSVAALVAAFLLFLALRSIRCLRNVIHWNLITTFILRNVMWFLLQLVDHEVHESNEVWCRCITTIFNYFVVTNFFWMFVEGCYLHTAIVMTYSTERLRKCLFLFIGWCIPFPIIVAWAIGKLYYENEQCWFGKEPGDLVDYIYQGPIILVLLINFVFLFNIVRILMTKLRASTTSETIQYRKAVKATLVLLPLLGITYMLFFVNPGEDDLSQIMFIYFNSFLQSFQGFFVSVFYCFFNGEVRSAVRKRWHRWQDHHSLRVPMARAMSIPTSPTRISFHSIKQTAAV
T1 sequence (P24387 whole entry): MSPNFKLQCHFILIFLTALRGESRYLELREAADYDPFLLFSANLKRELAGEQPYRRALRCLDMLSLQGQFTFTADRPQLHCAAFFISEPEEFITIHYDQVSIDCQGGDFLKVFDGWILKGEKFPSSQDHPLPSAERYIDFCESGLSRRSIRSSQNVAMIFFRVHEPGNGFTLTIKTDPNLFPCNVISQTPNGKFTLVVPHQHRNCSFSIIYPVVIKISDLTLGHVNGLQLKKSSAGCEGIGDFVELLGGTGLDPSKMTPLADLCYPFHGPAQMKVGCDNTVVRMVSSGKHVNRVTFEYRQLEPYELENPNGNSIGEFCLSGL

| SMILES | EC50 |
| --- | --- |
| CC(=O)c1ccc(NC(=S)NC(=O)Cc2ccc(Cl)cc2)cc1 | 13.2 µM (active) |
| CC(=O)c1cccc(NC(=S)NC(=O)Cc2ccc(Cl)cc2)c1 | > 53 µM (inactive) |
| O=[N+]([O-])c1ccc(-c2ccc(/C=N/Nc3nc(N4CCCCC4)nc(N4CCCCC4)n3)o2)cc1 | 5.96 µM (active) |

test system: not listed separately; test: Luminescence Cell-Based Dose Response HTS to Identify Inhibitors of 5'UTR Stem-Loop Driven Prion Protein mRNA Translation in H4 Neuroglioblastoma Cells. [Related pubchem assays: 1827 (Project Summary), 1813 (Primary HTS)]; type: functional; settings: not given

| SMILES | EC50 |
| --- | --- |
| Oc1[nH]c2ccc(Br)cc2c1N=NC(S)=Nc1ccc(F)cc1 | > 120 µM (not active) |
| COC(=O)Nc1nc2cc(C(=O)c3ccc(F)cc3)ccc2[nH]1 [FLUBENDAZOLE] | 0.225 µM (active) |

test system: not listed separately; test: NIH3T3 cell viability loss – ATP luminescence, mouse fibroblasts, counter-screen, dose response (AID 2010); type: functional, cell-based; settings: not given;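 also: cells exposed to compound for about 90 hours before reading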

| SMILES | EC50 |
| --- | --- |
| Oc1[nH]c2ccc(Br)cc2c1N=NC(S)=Nc1ccc(F)cc1 | 7.03 µM (active) |

test system: not listed separately; test: Luminescence Cell-Based Dose Response HTS to Identify Activators of Luciferase Translation or Activity in H4 […] Cells. [Related pubchem assays: 1829 (Project Summary), 1814 (Primary HTS)]; type: functional; settings: not given

| SMILES | EC50 |
| --- | --- |
| CC(=O)c1cccc(NC(=O)C(=O)Nc2cccc3ccccc23)c1 | 13.3 µM (active) |
| O=C(Nc1ccc(-c2cn3ccsc3n2)cc1)C1CC1 | 0.487 µM (active) |

molecular target: T2, Streptokinase A (Streptococcus pyogenes serotype M1, UniProt P10520); test: viability-normalized secreted streptokinase activity reduction – plasminogen activation absorbance, OD405, dose response (AID 1914); type: functional, Streptococcus pyogenes M1 GAS; settings: not given;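 also: secreted streptokinase activity via plasminogen activation per viability signal from cell pellet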
T2 sequence (P10520 whole entry): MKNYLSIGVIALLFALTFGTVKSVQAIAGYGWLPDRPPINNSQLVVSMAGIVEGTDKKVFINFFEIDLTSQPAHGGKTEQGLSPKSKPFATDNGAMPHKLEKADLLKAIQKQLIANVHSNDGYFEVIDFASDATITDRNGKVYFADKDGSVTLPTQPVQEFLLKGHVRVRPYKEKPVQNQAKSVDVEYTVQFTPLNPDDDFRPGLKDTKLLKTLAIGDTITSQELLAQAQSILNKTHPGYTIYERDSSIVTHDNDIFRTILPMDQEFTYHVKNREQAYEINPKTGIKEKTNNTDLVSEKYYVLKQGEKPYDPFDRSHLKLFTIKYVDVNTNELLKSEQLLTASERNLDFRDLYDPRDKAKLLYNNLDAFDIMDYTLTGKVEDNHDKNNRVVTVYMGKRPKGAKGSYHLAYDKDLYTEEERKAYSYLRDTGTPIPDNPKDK

| SMILES | EC50 |
| --- | --- |
| COc1ccc(C(=O)NC2CCCCCC2)cc1S(=O)(=O)N1CCOCC1 | > 150 µM (not active) |
| CC(C)c1nc(N2CCCC2)c(C#N)c2c1CCCC2 | > 150 µM (not active) |
| CN(C)/C=C1\SC(=S)N(c2ccc(Br)cc2)C1=O | 17.2 µM (active) |
| Clc1ccccc1CN(Cc1ccccc1)c1ncnc2nc[nH]c12 | > 150 µM (not active) |
| CC(C)S(=O)(=O)c1csc(NC(=O)Nc2ccc(Cl)cc2)c1Cl | 74.3 µM (active) |
| Cc1ccccc1OCC(=O)Nc1ccccc1N1CCC(C)CC1 | 45 µM (active) |
| c1ccc(CCNc2nc(-c3ccccn3)cs2)cc1 | > 150 µM (not active) |
| COc1cc(OC)cc(C(=O)Nc2nc3ccccc3[nH]2)c1 | > 150 µM (not active) |
| O=C(Nc1ccc(OC(F)(F)F)cc1)C1CCCN(S(=O)(=O)c2c[nH]cn2)C1 (centres undefined) | > 150 µM (not active) |
| CCC(C)c1ccc(C(C)N=C(S)NC2CCCCC2)cc1 (centres undefined) | 146 µM (active) |

test system: not listed separately; test: Luminescence Cell-Based Dose Retest to Confirm Inhibitors of Cancer Stem Cells. [Related pubchem assays (depositor defined):AID2717, AID2721]; type: functional; settings: Homo sapiens

| SMILES | AC50 |
| --- | --- |
| COc1ccc(-c2nc(N)nc(C)c2Oc2ccccc2Br)c(O)c1 | 1.96 µM (active) |
| CCC(C)Sc1cccc(-c2nc3cc(C)ccn3c2NCc2ccccc2)c1 (centres undefined) | 5.14 µM (active) |
| CC(=O)Nc1ccc(-c2csc(NC(=O)Cc3ccccc3F)n2)cc1 | 9.04 µM (active) |
| CC(=O)Nc1ccc(C2CC(c3ccc(Cl)cc3)=NN2c2ccccc2)cc1 (centres undefined) | 1.64 µM (active) |
| CCOc1cc(/C=N/O)cc(Br)c1OCc1ccc(Cl)cc1 | 3.77 µM (active) |

test system: not listed separately; test: Trypanosoma cruzi growth suppression in host cells – NIH3T3 host cells, beta-gal luminescence, confirmation (AID 2044); type: functional, cell-based; settings: not given;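 also: intracellular parasites grown in NIH/3T3 mouse fibroblasts as host cells; luminescent beta-galactosidase reporter signal from transgenic T. cruzi replicating inside host cells; inhibitors lower the luminescence signal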

| SMILES | EC50 |
| --- | --- |
| Oc1[nH]c2ccc(Br)cc2c1N=NC(S)=Nc1ccc(F)cc1 | 1.63 µM (active) |

— ChEMBL document CHEMBL1201862, “PubChem BioAssay data set” (2004)
